Test results reported in ChEMBL document CHEMBL1201862, “PubChem BioAssay data set” (2004).
Activity calls are given as the source filed them.

Columns and labels:
[1] = Luminescence Cell-Based Dose Retest to Confirm Inhibitors of Cancer Stem Cells. [Related pubchem assays (depositor defined):AID2717, AID2721]; type: functional, Homo sapiens; conditions: Homo sapiens
[2] = inhibitors of SNCA 5'UTR-driven reporter translation, confirmation, H4 neuroglioma cells, luminescence (AID 1988); type: functional, cell-based
Protein RecA = target: T1, Protein RecA (Mycobacterium tuberculosis, UniProt P9WHJ3); test: Fluorescence Cell-Free Homogeneous Dose Retest to Identify Inhibitors of RecA-Intein Splicing Activity. [Related pubchem assays (depositor defined):AID2097, AID2223, AID489010, AID492950]; type: functional
T1 sequence (P9WHJ3 whole entry): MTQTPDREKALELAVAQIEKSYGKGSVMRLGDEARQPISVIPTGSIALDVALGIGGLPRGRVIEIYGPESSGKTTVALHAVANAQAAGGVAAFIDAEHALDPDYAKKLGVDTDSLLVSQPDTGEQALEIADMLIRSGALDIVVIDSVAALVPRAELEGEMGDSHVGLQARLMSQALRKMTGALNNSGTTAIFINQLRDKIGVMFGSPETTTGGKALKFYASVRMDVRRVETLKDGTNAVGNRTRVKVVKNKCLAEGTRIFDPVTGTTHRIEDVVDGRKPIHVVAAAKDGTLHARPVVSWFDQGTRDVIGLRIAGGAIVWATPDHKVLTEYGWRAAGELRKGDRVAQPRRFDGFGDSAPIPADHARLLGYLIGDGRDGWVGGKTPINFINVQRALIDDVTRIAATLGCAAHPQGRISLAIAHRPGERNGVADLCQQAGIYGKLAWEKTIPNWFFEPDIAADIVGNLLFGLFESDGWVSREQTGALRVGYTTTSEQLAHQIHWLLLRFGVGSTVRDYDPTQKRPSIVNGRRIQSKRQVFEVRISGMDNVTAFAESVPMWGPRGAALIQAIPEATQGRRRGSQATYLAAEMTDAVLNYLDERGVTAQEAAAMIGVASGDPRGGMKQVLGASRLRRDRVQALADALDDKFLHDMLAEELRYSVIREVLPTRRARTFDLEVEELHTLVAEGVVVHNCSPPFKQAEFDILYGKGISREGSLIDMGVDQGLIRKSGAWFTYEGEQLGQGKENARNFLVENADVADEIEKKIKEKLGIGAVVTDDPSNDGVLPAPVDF

[3] = target: T2, Replicative DNA helicase DnaB (Mycobacterium tuberculosis, UniProt P9WMR3); test: DnaB intein splicing inhibitors, dose response, biochemical, cell-free fluorescence (AID 449749); type: functional
T2 sequence (P9WMR3 whole entry): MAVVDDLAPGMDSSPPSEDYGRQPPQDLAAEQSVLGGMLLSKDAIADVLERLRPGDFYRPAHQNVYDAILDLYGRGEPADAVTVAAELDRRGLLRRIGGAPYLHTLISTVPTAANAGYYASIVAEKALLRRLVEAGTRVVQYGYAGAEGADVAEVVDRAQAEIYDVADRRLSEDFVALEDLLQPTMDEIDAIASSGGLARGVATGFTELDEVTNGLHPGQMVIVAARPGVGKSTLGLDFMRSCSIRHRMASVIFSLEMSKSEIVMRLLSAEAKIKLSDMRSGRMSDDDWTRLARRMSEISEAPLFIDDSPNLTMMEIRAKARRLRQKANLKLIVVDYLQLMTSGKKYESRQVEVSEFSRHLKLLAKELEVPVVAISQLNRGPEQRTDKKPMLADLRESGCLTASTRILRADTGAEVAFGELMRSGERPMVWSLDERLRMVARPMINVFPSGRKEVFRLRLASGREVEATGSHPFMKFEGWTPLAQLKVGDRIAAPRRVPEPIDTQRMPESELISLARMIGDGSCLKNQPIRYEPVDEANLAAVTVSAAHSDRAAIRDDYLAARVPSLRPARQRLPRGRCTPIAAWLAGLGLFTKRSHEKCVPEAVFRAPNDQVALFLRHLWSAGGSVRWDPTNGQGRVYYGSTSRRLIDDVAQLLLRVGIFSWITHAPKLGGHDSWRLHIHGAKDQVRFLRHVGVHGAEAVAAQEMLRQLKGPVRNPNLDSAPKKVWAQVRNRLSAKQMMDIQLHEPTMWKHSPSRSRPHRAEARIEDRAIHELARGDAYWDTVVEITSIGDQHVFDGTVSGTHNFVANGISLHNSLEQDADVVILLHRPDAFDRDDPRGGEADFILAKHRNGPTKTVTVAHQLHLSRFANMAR

Cytochrome P450 2C9 = Cytochrome P450 2C9 (Homo sapiens, UniProt P11712)
Cytochrome P450 2C19 = Cytochrome P450 2C19 (Homo sapiens, UniProt P33261); test: Cytochrome panel assay with activity outcomes. Panel member name: p450-cyp2c19 Compounds with AC50 equal or less than 10 uM are considered active; type: functional
[4] = NIH-3T3 fibroblast cytotoxicity, dose response, cytotoxicity control, cell-based, fluorescence, Alamar Blue, secondary assay (AID 2327); type: functional;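 note: NIH-3T3 mouse fibroblasts cultured with fluconazole at 8 µg/mL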
[5] = Luminescence Cell-Based Dose Response HTS to Identify Activators of Luciferase Translation or Activity in H4 […] Cells. [Related pubchem assays: 1829 (Project Summary), 1814 (Primary HTS)]; type: functional
H4 = test: Luminescence Cell-Based Dose Response HTS to Identify Activators of 5'UTR Stem-Loop Driven Prion Protein mRNA Translation in H4 Neuroglioblastoma Cells. [Related pubchem assays: 1829 (Project Summary), 1814 (Primary HTS)]; type: functional; conditions: Homo sapiens
INS1 = test: beta cell apoptosis inhibitors, cytokine rescue, dose response, luminescence, retest (AID 449756); type: functional, cell-based; conditions: Rattus norvegicus;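 note: cell death triggered by IL-1 beta plus TNF-alpha plus IFN-gamma mixture; protective hits raise ATP signal compared with cytokine alone wells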
Streptococcus = test: Group A Streptococcus viability loss, dose response, counter-screen for streptokinase expression inhibitor project, luminescence, BacTiterGlo (AID 1915); type: functional, organism-based;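 note: potency for reduction of bacterial viability or growth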
Streptokinase A = target: T3, Streptokinase A (Streptococcus pyogenes serotype M1, UniProt P10520); test: S. pyogenes streptokinase expression inhibitors, potency, dose response, plasminogen activation absorbance, OD405 (AID 1914); type: functional, Streptococcus pyogenes M1 GAS;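 note: secreted streptokinase activity via plasminogen activation per viability signal from cell pellet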
T3 sequence (P10520 whole entry): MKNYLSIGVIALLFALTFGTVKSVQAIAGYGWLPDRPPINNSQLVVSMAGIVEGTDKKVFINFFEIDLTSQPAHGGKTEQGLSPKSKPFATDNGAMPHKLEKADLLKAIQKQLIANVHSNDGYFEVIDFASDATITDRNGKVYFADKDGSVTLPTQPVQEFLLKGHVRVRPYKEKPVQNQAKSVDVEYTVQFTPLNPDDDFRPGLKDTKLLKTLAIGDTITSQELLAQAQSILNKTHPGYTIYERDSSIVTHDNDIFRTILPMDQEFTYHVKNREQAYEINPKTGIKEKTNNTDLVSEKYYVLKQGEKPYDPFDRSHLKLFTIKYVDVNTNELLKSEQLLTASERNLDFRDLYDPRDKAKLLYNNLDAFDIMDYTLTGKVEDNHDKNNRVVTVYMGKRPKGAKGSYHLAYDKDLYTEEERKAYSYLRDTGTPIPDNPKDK

[6] = system: Streptococcus sp. 'group A'; test: growth inhibition of control SK(-) GAS strain, dose response, counter-screen for streptokinase expression inhibitor project, luminescence, kanamycin, BacTiterGlo, confirmation (AID 1900); type: functional, organism-based

Sequence of Cytochrome P450 2C19 (P33261 whole entry): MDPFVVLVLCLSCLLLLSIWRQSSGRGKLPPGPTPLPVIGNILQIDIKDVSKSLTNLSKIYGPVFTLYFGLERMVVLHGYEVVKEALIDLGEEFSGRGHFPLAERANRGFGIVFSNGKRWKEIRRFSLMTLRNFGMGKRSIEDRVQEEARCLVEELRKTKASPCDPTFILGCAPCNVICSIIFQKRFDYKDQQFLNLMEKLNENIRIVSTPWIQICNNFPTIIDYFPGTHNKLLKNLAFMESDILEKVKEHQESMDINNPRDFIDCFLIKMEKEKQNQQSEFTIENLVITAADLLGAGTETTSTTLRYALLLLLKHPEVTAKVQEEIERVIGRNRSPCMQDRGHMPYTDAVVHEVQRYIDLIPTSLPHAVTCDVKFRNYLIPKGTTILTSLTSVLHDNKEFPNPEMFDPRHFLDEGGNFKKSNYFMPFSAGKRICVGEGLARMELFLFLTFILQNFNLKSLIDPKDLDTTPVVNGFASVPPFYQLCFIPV
Sequence of Cytochrome P450 2C9 (P11712 whole entry): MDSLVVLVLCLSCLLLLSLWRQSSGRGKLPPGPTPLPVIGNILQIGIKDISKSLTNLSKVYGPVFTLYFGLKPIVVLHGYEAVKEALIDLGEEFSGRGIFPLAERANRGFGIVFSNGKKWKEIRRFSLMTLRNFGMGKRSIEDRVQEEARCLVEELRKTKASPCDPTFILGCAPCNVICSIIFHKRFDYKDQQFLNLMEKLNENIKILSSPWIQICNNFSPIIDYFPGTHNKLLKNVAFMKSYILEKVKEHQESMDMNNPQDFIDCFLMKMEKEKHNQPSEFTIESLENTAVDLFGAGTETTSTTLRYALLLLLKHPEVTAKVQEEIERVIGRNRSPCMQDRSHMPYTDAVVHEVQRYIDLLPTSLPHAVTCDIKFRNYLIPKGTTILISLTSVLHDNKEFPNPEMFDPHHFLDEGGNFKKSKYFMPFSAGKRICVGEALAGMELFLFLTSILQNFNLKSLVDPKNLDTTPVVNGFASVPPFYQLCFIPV

Row | Compound | AC50 [1] | EC50 (Protein RecA) | AC50 [3] | further results
1 | NC(=O)CC(NC(=O)Cc1cccc2ccccc12)c1ccc(NC2CCCCCCC2)c([N+](=O)[O-])c1 (stereo not drawn) | 14.1 µM (active) |  |  | 
2 | CC(C)COc1ccc2[nH]c3c(c2c1)CCCC3=O |  |  |  | EC50 [2]: 10.6 µM (active)
3 | COc1ccc(C(=O)/C(=C/c2cccs2)c2nc3ccccc3o2)cc1 |  | > 380 µM (inactive) | > 380 µM (inactive) | 
4 | COc1ccccc1Oc1cc(C#N)c(C#N)cc1-n1nnc2ccccc21 |  | 3.77 µM (active) | 20.2 µM (active) | 
5 | Cn1c(N)c(C(=O)COC(=O)c2ccccc2C(=O)c2ccc(Cl)c([N+](=O)[O-])c2)c(=O)n(C)c1=O | 4.25 µM (active) |  |  | 
6 | CC(=O)Oc1ccc2c(=O)oc(-c3ccccc3C)nc2c1 |  | 37.8 µM (active) | > 380 µM (inactive) | 
7 | COc1ccc(-n2nc3c(N4CCC(C(=O)NCCc5ccccc5C)CC4)nnc(C)c3c2C)cc1 | 4.03 µM (active) |  |  | 
8 | CN1/C(=C\C(=O)Nc2ccc(Br)cc2)C(C)(C)c2ccccc21 | 5.09 µM (active) |  |  | 
9 | COc1cc(OC)cc(-c2nnc(SCC(=O)N(Cc3ccccc3)C(C)(C)C)o2)c1 | 0.618 µM (active) |  |  | 
10 | CC(O)CC(C(=O)NNc1ccccc1)C(=O)NNc1ccccc1 (stereo not drawn) | 0.489 µM (active) |  |  | 
11 | O=C(Nc1cc(C(F)(F)F)ccc1N1CCCCC1)c1ccc(Br)o1 | 4.94 µM (active) |  |  | AC50 (Cytochrome P450 2C9): 1.41 µM (inconclusive)
12 | CC(=O)NC1=NN(c2ccccc2)C(=O)C1 |  | 5.21 µM (active) | 33.5 µM (active) | AC50 (Cytochrome P450 2C19): inconclusive
13 | CCCc1[nH][nH]c(=O)c1C(c1ccccc1)C(C#N)C#N (stereo not drawn) |  | 4.19 µM (active) | 8.91 µM (active) | 
14 | Cc1ccc(CNC(=O)c2ccc(N(C)S(=O)(=O)c3ccccc3)cc2)cc1 |  | > 380 µM (inactive) | 53.4 µM (active) | 
15 | O=C(Oc1ccc2ccccc2c1)c1ccco1 |  | 13.9 µM (active) | 18.3 µM (active) | 
16 | Cc1cc(C)cc(S(=O)(=O)c2cnc3ccccc3n2)c1 |  | 4.26 µM (active) | 20.2 µM (active) | 
17 | Clc1ccc(-c2c[n+](Cc3ccc(Br)cc3)c3n2CCCCC3)cc1 |  |  |  | EC50 [4]: > 150 µM (inconclusive)
18 | CCOCC(=O)NCc1ccc2c(c1)cc(C)n2C |  | 23.6 µM (active) | > 380 µM (inactive) | 
19 | COC(=O)CN1C(=O)C2(C(C#N)=C(N)Oc3c2c(C)nn3-c2ccccc2)c2ccccc21 (stereo not drawn) |  | 3.38 µM (active) | 7.38 µM (active) | 
20 | COc1cccc(C=O)c1OCCCOc1cccc2cccnc12 |  |  |  | EC50 [5]: 16.4 µM (active); EC50 (H4): 28.1 µM (active)

Row | Compound | AC50 [1] | EC50 (Protein RecA) | AC50 [3] | further results
21 | COc1ccc(-c2cn(Cc3ccc(C(=O)c4ccccc4)cc3)nn2)cc1 |  |  |  | EC50 [5]: 90.4 µM (active); EC50 (H4): 21.2 µM (active); AC50 (INS1): 9.37 µM (active)
22 | CC[C@@H]1CC=C[C@H]2[C@H]1C(=O)N(Cc1ccccc1)[C@H]2c1ccc(OC)c(Cl)c1 | 6.12 µM (active) |  |  | EC50 (Streptococcus): 16 µM (active); EC50 (Streptokinase A): 4.05 µM (active); EC50 [6]: 6.67 µM (active)
23 | O=C(/C(=C\c1ccccc1)c1nc2ccccc2[nH]1)c1ccc(Cl)cc1 | 3.28 µM (active) |  |  | 
24 | CC1=NNC(=O)C1C(c1ccccc1)C1C(=O)NN=C1C (stereo not drawn) |  | 0.194 µM (active) | 0.383 µM (active) | 
25 | CC(=O)N(c1ccccc1)C(C)c1nc(C#N)c(C#N)nc1C (stereo not drawn) |  | 4.35 µM (active) | 24.5 µM (active) | 
26 | Cc1cc(C)c(OCCCCN2CCNCC2)c(C)c1 | 3.23 µM (active) |  |  | 
27 | COc1ccc(N2CCN(C(=O)c3ccc(Oc4ccc(C(F)(F)F)cn4)cc3)CC2)cc1 |  | > 380 µM (inactive) | 121 µM (active) | 
28 | Cc1c(C(=O)N2CCOCC2)sc2nc(-c3ccccc3)cn12 |  |  |  | EC50 [5]: 3.66 µM (active); EC50 (H4): 28.8 µM (active)
29 | COC(=O)Cc1n[nH]c2c1C1(CCSCC1)C(C#N)=C(N)O2 |  | 1.99 µM (active) | 10.8 µM (active) | 
30 | COc1ccc(-c2sc3ccccc3c2-c2ccc(O)cc2)cc1 | 3.35 µM (active) |  |  | 
31 | CCN(CC)S(=O)(=O)c1cccc(C(=O)N/N=C/c2cccc(O)c2O)c1 | 8.97 µM (active) |  |  | 
32 | Oc1cccc(/C=N/c2cccc3ccccc23)c1O |  | 10.1 µM (active) | 3.04 µM (active) | 
33 | COC(=O)Cc1cc(=O)n(-c2ccccc2)[nH]1 |  | 14 µM (active) | 17.6 µM (active) | 
34 | O=c1cc(-c2ccccc2)[nH]n1-c1nc2ccccc2s1 | 2.45 µM (active) |  |  | EC50 (Streptococcus): 10.3 µM (active); EC50 (Streptokinase A): > 150 µM (not active); EC50 [6]: 2.43 µM (active)
35 | C/C(=N\NC(=O)Cc1cc(O)[nH]n1)c1cccc([N+](=O)[O-])c1 |  | 1.31 µM (active) | 2.73 µM (active) | 
36 | CO/C(O)=C1/C(C)=NC(=S)NC1c1ccc(OC(=O)c2ccco2)cc1 (stereo not drawn) |  | 14.4 µM (active) | 33.1 µM (active) | 
37 | COc1ccc(/C=N/NC(=O)c2cc(C34CC5CC(CC(C5)C3)C4)[nH]n2)cc1O | 1.16 µM (active) |  |  | 
38 | COc1ccc2cc(/C=N/NC(=O)c3ccc(CN(c4cccc(Cl)c4Cl)S(C)(=O)=O)cc3)c(Cl)nc2c1 | < 0.16 µM (active) |  |  | 
39 | COc1ccc(/C(=N/OC(C)=O)c2nccc3cc(OC)c(OC)cc23)cc1OC |  | 36.3 µM (active) | > 380 µM (inactive) | 
40 | CC(C)=CCCC1(C)C=Cc2c(ccc3c2[nH]c2cc(O)c(C)cc23)O1 (stereo not drawn) | 2.9 µM (active) |  |  | EC50 (Streptococcus): 6.72 µM (active); EC50 [6]: 2.31 µM (active)
